Source: patent US11912703B2, “6-azaindole compounds” (BRISTOL-MYERS SQUIBB COMPANY, priority 2017, dated 2024)
pIC50: −log10 of the molar value.

Experiments:
human TLR9 = human TLR9 (Homo sapiens (Human), UniProt Q9NR96); experiment: TLR9 inhibition reporter assay (HEK-Blue SEAP); details: read-out: TLR9 IC50; HEK-Blue cells overexpressing human TLR9, ODN2006 5 nM stimulation, SEAP reporter;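 also: SEAP driven by IFN-β minimal promoter carrying five NF-κB and AP-1 sites, 22 h at 37 °C, compounds 0.05 nM–50 µM, inhibition scaled between agonist-plus-DMSO and reference-inhibitor wells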
Sequence of human TLR9 (Q9NR96 26-1032): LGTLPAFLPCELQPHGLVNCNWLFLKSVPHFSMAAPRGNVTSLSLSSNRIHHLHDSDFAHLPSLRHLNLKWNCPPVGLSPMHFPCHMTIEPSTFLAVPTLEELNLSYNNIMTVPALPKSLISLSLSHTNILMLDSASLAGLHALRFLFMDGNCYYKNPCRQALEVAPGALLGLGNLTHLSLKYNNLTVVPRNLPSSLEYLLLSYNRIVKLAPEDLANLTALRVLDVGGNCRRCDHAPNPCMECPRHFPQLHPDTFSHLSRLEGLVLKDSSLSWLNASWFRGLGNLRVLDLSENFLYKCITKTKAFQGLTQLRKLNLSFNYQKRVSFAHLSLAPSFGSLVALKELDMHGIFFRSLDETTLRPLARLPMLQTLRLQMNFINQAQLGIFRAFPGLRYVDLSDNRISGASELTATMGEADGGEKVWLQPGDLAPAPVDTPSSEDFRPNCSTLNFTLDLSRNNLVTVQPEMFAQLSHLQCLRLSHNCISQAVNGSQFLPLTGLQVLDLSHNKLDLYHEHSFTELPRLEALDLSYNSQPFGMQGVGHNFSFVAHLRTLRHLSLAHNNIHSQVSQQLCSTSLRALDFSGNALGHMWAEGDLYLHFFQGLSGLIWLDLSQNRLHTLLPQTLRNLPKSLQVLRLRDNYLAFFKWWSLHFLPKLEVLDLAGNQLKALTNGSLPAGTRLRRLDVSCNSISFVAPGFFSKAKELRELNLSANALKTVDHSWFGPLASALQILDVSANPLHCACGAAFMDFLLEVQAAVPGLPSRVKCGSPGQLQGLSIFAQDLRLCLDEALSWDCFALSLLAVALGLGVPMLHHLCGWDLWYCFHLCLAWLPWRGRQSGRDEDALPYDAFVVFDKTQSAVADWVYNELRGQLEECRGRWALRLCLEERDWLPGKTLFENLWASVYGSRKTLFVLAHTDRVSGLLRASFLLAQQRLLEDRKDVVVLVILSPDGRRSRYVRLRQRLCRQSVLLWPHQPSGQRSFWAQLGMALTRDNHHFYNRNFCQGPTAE

human TLR8 = human TLR8 (Homo sapiens (Human), UniProt Q9NR97); experiment: TLR8 inhibition reporter assay (HEK-Blue SEAP); details: read-out: TLR8 IC50; HEK-Blue cells overexpressing human TLR8, R848 15.9 μM stimulation, SEAP reporter;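 also: SEAP driven by IFN-β minimal promoter with five NF-κB and AP-1 sites, compounds tested 0.05 nM to 50 µM, 22 h incubation, inhibition relative to agonist plus DMSO wells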
Sequence of human TLR8 (Q9NR97 27-1041): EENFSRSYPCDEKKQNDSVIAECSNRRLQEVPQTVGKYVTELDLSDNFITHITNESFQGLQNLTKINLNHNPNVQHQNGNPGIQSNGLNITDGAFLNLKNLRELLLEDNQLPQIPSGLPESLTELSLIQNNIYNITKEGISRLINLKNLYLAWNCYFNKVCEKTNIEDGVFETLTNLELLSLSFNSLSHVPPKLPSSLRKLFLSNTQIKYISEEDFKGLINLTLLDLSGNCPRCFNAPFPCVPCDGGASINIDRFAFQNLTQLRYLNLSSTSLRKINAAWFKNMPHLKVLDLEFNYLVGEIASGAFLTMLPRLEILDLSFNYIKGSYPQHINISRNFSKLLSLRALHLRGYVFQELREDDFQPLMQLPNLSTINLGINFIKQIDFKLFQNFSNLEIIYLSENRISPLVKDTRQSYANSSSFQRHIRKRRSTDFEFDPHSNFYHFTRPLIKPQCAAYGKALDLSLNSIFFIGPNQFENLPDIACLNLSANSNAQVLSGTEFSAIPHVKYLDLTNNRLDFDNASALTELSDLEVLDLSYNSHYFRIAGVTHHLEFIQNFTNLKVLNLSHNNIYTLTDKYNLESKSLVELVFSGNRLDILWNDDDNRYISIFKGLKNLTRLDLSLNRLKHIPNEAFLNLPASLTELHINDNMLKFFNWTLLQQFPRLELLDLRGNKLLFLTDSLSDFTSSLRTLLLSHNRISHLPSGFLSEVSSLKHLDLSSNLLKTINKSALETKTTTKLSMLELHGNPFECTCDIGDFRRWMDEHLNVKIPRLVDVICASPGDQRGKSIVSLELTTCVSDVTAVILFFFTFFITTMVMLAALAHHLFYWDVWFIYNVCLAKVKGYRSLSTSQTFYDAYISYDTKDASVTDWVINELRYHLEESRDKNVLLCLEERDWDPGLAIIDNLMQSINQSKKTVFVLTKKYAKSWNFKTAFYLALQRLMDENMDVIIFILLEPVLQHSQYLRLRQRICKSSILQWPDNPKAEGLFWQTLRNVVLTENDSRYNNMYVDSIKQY

human TLR7 = human TLR7 (Homo sapiens (Human), UniProt Q9NYK1); experiment: TLR7 inhibition reporter assay (HEK-Blue SEAP); type: cell-based; details: HEK-Blue cells overexpressing human TLR7, gardiquimod 7.5 μM stimulation
Sequence of human TLR7 (Q9NYK1 27-1049): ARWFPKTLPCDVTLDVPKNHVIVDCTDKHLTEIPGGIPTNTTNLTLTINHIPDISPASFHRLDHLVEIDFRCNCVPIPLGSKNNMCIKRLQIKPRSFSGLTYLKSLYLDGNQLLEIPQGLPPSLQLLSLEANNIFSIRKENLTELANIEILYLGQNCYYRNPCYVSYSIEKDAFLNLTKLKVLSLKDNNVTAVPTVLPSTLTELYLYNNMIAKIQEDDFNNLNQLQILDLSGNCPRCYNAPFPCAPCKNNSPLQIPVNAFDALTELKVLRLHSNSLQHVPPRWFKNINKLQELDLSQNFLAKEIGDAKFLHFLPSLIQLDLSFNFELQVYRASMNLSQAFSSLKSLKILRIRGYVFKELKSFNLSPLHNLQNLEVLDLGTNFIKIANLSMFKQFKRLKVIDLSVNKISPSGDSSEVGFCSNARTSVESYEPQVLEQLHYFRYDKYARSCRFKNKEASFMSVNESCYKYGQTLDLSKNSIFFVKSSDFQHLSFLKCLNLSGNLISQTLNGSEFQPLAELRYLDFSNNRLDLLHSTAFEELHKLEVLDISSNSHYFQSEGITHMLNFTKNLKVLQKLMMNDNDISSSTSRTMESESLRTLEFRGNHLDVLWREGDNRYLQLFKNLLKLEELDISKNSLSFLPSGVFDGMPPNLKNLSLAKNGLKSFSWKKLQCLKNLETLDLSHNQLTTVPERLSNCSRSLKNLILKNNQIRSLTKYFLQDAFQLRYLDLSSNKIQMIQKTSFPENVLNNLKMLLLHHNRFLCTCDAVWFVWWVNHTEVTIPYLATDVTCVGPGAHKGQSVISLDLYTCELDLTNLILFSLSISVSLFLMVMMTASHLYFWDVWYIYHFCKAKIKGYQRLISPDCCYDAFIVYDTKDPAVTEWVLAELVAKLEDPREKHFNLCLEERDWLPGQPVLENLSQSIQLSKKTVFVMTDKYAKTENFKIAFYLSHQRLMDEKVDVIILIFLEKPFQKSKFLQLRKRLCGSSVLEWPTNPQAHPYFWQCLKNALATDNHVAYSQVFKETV

Row | SMILES | pIC50 (human TLR9) | pIC50 (human TLR8) | pIC50 (human TLR7)
1 | CCN(C)C1CCC(c2cc3c(C(C)C)c(-c4cc(OC)c5ncnn5c4)[nH]c3cn2)C1 (stereo not drawn) [Example 249] | 5.84 | 7.92 | 7.92
2 | Cc1cc(-c2[nH]c3cnc(C4CCN(CC5(C)COC5)CC4)c(F)c3c2C(C)C)cn2ncnc12 [Example 250] | 5.32 | 8.47 | 8.49
3 | Cc1cc(-c2[nH]c3cnc(C4CCN(C5COC5)CC4)c(F)c3c2C(C)C)cc(C)n1 [Example 251] | 4.83 | 7.64 | 7.82
4 | COc1cc(-c2[nH]c3cnc(N4CCN(CC(=O)N(C)C)CC4)c(C)c3c2C(C)C)cn2ncnc12 [Example 252] | 5.47 | 8.28 | 8.19
5 | COc1cc(-c2[nH]c3cnc(N4CCC(N5CCC5)CC4)c(F)c3c2C(C)C)cn2ncnc12 [Example 253] | 5.54 | 9.11 | 9.01
6 | COc1cc(-c2[nH]c3cnc(N4CCC(N5CC6(COC6)C5)CC4)c(F)c3c2C(C)C)cn2ncnc12 [Example 254] | 5.52 | 9.26 | 8.82
7 | Cc1cc(-c2[nH]c3cnc(N4CCC(NC5COC5)CC4)c(F)c3c2C(C)C)cn2ncnc12 [Example 255] | 4.84 | 9.31 | 9.30
8 | Cc1cc(-c2[nH]c3cnc(N4CCC(N(C)C)CC4)c(F)c3c2C(C)C)cn2ncnc12 [Example 256] | 4.81 | 8.92 | 8.85
9 | Cc1cc(-c2[nH]c3cnc(N4CCC(N(C)CC(F)F)CC4)c(F)c3c2C(C)C)cn2ncnc12 [Example 257] | 4.44 | 8.19 | 8.28
10 | Cc1cc(-c2[nH]c3cnc(N4CCC(NCC(C)(C)O)CC4)c(F)c3c2C(C)C)cn2ncnc12 [Example 258] | 5.22 | 9.46 | 9.11
11 | CNC(=O)CN(C)C1CCN(c2ncc3[nH]c(-c4cc(C)c5ncnn5c4)c(C(C)C)c3c2F)CC1 [Example 259] | 4.78 | 8.59 | 8.68

Further lines, results first:

Row | pIC50 (human TLR9) | pIC50 (human TLR8) | pIC50 (human TLR7) | SMILES
12 | 6.08 | 8.77 | 8.85 | Cc1cc(-c2[nH]c3cnc(C4CCC(NCC(C)(C)C)CC4)c(F)c3c2C(C)C)cn2ncnc12 (stereo not drawn) [Example 260]
13 | 5.90 | 8.96 | 9.21 | Cc1cc(-c2[nH]c3cnc(C4CCC(N(C)C(C)C)CC4)c(F)c3c2C(C)C)cn2ncnc12 (stereo not drawn) [Example 261]
14 | 5.88 | 8.38 | 8.89 | Cc1cc(-c2[nH]c3cnc(C4CCC(N5CCC5)CC4)c(F)c3c2C(C)C)cn2ncnc12 (stereo not drawn) [Example 262]
15 | 5.25 | 8.39 | 8.72 | CCN(C)C1CCC(c2ncc3[nH]c(-c4cn5ncnc5c(C)c4C)c(C(C)C)c3c2F)CC1 (stereo not drawn) [Example 263]
16 | 5.78 | 9.80 | 9.16 | Cc1c(-c2[nH]c3cnc(N4CCC(NC5CCOCC5)CC4)c(F)c3c2C(C)C)cn2ncnc2c1C [Example 264]
17 | 5.99 | 9.38 | 9.44 | Cc1c(N2CCC(NC3CCOCC3)CC2)ncc2[nH]c(-c3cc(C)c4ncnn4c3)c(C(C)C)c12 [Example 265]
18 | 4.78 | 8.72 | 8.16 | Cc1c(-c2[nH]c3cnc(C4CCC(NC5COC5)CC4)c(F)c3c2C(C)C)cn2ncnc2c1C (stereo not drawn) [Example 267]
19 | 6.12 | 7.77 | 8.32 | CCN(C)C1CCC(c2ncc3[nH]c(-c4cc(OC)c5ncnn5c4)c(C(C)C)c3c2C)CC1 (stereo not drawn) [Example 268]
20 | 6.69 | 8.19 | 8.36 | COc1cc(-c2[nH]c3cnc(C4CCC(NCC5(C)COC5)CC4)c(C)c3c2C(C)C)cn2ncnc12 (stereo not drawn) [Example 269]
21 | 6.41 | 8.49 | 8.59 | COc1cc(-c2[nH]c3cnc(C4CCC(NCC5(C)COC5)CC4)c(C)c3c2C(C)C)cn2ncnc12 (stereo not drawn) [Example 270]
